In article doi:10.1101/2020.05.11.20064584v1 (medRxiv, 2020):
Read-outs that look alike come from different tables or passages of the source.

Legend:
[1] = Rat pharmacokinetics, blood LL-37 by ELISA after gavage; assay type: in vivo, SD rats; settings: male, SD, serum, po
[2] = Acute and subchronic toxicity test in rats; assay type: in vivo; settings: SD rats, oral gavage, 100 times of the expected clinical dose
[3] = test system: rVSV-SARS; settings: 2 h, 10 ug/ml
[4] = 6.0E10/kg·day by gavage, end of two weeks, n=5, Mean ± SEM

## CC[C@H](C)[C@H](NC(=O)[C@H](CCCCN)NC(=O)[C@H](CCC(=O)O)NC(=O)[C@H](CCCCN)NC(=O)[C@H](CO)NC(=O)[C@H](CCCCN)NC(=O)[C@H](CCCNC(=N)N)NC(=O)[C@H](Cc1ccccc1)NC(=O)[C@H](Cc1ccccc1)NC(=O)[C@H](CC(=O)O)NC(=O)CNC(=O)[C@H](CC(C)C)NC(=O)[C@@H](N)CC(C)C)C(=O)NCC(=O)N[C@@H](CCCCN)C(=O)N[C@@H](CCC(=O)O)C(=O)N[C@@H](Cc1ccccc1)C(=O)N[C@@H](CCCCN)C(=O)N[C@@H](CCCNC(=N)N)C(=O)N[C@H](C(=O)N[C@H](C(=O)N[C@@H](CCC(N)=O)C(=O)N[C@@H](CCCNC(=N)N)C(=O)N[C@H](C(=O)N[C@@H](CCCCN)C(=O)N[C@@H](CC(=O)O)C(=O)N[C@@H](Cc1ccccc1)C(=O)N[C@@H](CC(C)C)C(=O)N[C@@H](CCCNC(=N)N)C(=O)N[C@@H](CC(N)=O)C(=O)N[C@@H](CC(C)C)C(=O)N[C@H](C(=O)N1CCC[C@H]1C(=O)N[C@@H](CCCNC(=N)N)C(=O)N[C@H](C(=O)N[C@@H](CCC(=O)O)C(=O)N[C@@H](CO)C(=O)O)[C@@H](C)O)C(C)C)[C@@H](C)CC)C(C)C)[C@@H](C)CC [LL-37]
[1]
  level at 1 h: 0.7 ng/mL
  level at 2 h: 1.65 ng/mL
  level at 4 h: 0.92 ng/mL
  level at 6 h: 0.14 ng/mL
[2]
  LD50: more than 6 × 10^10 CFU/kg/ day
[3]
  maximum inhibition rate, rVSV-SARS: 85%
[4]; female SD rats
  CK: 715.56±343.35 U/L
  TC: 1.30 ± 0.20 mM
  TG: 0.33 ± 0.07 mM
[4]; male SD rats
  CK: 661.02±93.22 U/L
  TG: 0.29 ± 0.03 mM
